Entries after “also recorded” stand apart in the source; their conditions may differ. Read-outs that look alike come from different tables or passages of the source.
What was measured:
PC3 cells [1] = assay: Cell growth by trypan-blue exclusion, PC3; assay type: cell-based, human; conditions: 72 hr
Method: (§1) FIG. 3 is a series of graphs illustrating the effects of drugs on growth potential of prostate cancer cells. Cells were treated with various inhibitors for 72 hrs and cell growth was enumerated by trypan-blue exclusion.
(§2) Prostate cancer cell lines used in our studies include LNCaP, LNCaP-Rf, PC3 and PC3-MM2. […] LNCaP cells and PC3 cells were derived from a lymph node metastasis and a bone metastasis, respectively, of human prostate tumors. All these cell lines express constitutively active AKT. To distinguish the effects of our therapeutics between normal and tumor cells, we also used an immortalized but non-tumorigenic prostate epithelial cell line, RWPE, in our study. All experiments were performed on growing cells in medium containing 10% fetal calf serum.
(§3) Further, effects of the combination treatment in altering colony formation potential were examined. For this purpose, cells were exposed to drugs for 24 or 46 hrs and trypsinized. Ten thousand viable cells were replated and allowed to grow colonies for 2 weeks.

LNCaP cells [2] = assay: PARP cleavage by Western blotting in LNCaP cells; assay type: cell-based, human
Method: Cell lysates were analysed for PARP cleavage by Western blotting. […] Lysates were analysed by Western blotting. […] Lysates were analysed by Western blotting. In FIG. 1D LNCaP cells were transfected with pcDNA3 (vector) or pcDNA3 encoding dn-AKT plasmid. […] Lysates were analysed by Western blotting.
as §2
Apoptosis was monitored by cleavage of the caspase-3 substrate poly (ADP-ribose) polymerase (PARP).

PC3-MM2 cells = assay: Cell growth by trypan-blue exclusion, PC3-MM2; assay type: cell-based, human; conditions: 72 hr
Method: as §1, §2, §3

LNCaP, LAPC4 and LAPC9 = conditions: most prostate cancer cell lines, including LNCaP; cited from earlier work
[3] = cited from earlier work
PC3 cells [4] = assay: Apoptosis of PC3 cells (DNA fragmentation Cell Death ELISA, Tunel); assay type: cell-based, human; conditions: 20 mM LY, 20 mM API-2, 50 mM roscovitine or combination for 14 hr (ELISA); 40 hrs (Tunel)
Method: Tunel positive cells are shown. […] Cells were incubated with Hoechest stain for 5 mins and examined using a fluorescent microscope. […] Amounts of cytosolic histone associated DNA fragments were measured.
as §2

Bim [5] = assay: Amounts of Bim in LNCaP and PC3 cells; assay type: cell-based, human
From the text: How AKT inhibitors facilitate the mitochondria-dependent apoptosis of prostate cancer cells remains to be determined. Potential mechanisms include accumulation of the BH3-only protein Bim and dephosphorylation and activation of Bad. The FOXO factors activate the Bim promoter, and AKT phosphorylates Bim, which may prevent its degradation.

[6] = tested on: malignant tumors refractory to conventional treatments; conditions: patients with malignant tumors refractory to conventional treatments; cited from earlier work
151 kinases = conditions: cited from earlier work
[7] = tested on: lung, breast, and B cell cancer; conditions: cited from earlier work
LNCaP cells [8] = conditions: cited from earlier work
PC3 and DU145 cells = conditions: cited from earlier work
Bcl-2 = assay: Western blotting: Bcl-2 expression in PC3 cells; conditions: longer exposure (20 hrs)
Method: (§5) Lysates were analysed by Western blotting. […] Cells were exposed to drugs for 20 hrs. Lysates were analysed by Western blotting.

[9] = tested on: HTLV-I transformed T cell lines (MT-2); conditions: cited from earlier work
[10] = tested on: melanoma cells expressing wild-type p53 (A375, 888-Mel, 624-Mel); conditions: melanoma cells A375, 888-Mel, 624-Mel (wild-type p53); cited from earlier work
[11] = cited from earlier work; remark: listed apart in the source
LNCaP, LNCaP-Rf = conditions: LNCaP-Rf prostate cancer cells, roscovitine alone; cited from earlier work
XIAP [12] = conditions: LNCaP, LNCaP-Rf, and PC3 cells; cited from earlier work
p53 = conditions: LNCaP and LNCaP-Rf cells; cited from earlier work
Bim [13] = conditions: PC3 cells, 8 hrs; roscovitine in either the presence or absence of API-2
Method: (§4) Lysates were analysed by Western blotting. […] Lysates were analysed by Western blotting.

XIAP [14] = conditions: PC3 cells, longer exposure (20 hrs), single agent
Method: as §4

[15] = orally, 3 times a day at 200 mg/kg or 2 times a day at 500 mg/kg; cited from earlier work
Cdk7/Cdk9 = assay: Western blotting: phosphorylation of RNA-Pol II in PC3 cells; conditions: short-term exposure (8 hrs)
Method: as §5

Q: Which results are given for `O=c1cc(N2CCOCC2)oc2c(-c3ccccc3)cccc12` [LY, 2-(4-morpholinyl)-8-phenyl-4H-1-benzopyran-4-one]?
A: cell growth (PC3 cells [1]): inhibit cell growth; PARP cleavage (LNCaP cells [2]; LNCaP cells, 8 hours, cleavage of caspase-3 substrate PARP, 10 uM LY294002 or 0.5 uM Wortmannin): did not induce any PARP cleavage; cell growth (PC3-MM2 cells): inhibit cell growth; apoptotic response (LNCaP, LAPC4 and LAPC9): induce a potent apoptotic response; in vivo half-life [3]: short in vivo half-life; apoptosis of PC3 cells (PC3 cells [4]): not; amounts of Bim (Bim [5]): increase amounts of Bim

Q: Which “toxicity, Phase I trial” value [6] does the source give for `CC[C@H](CO)Nc1nc(NCc2ccccc2)c2ncn(C(C)C)c2n1` [R-roscovitine, 2-(1-R-hydroxymethylpropylamino)-6-benzylamino-9-iso-propylpurine] here?
A: Its value is “toxicity at higher doses”.

Q: And the “tumor responses, Phase I trial” value [6]?
A: Its value is “no objective tumor responses”.

Q: What about the “binding among 151 kinases examined” value (151 kinases) of the same compound?
A: Its value is “bound only its known CDK targets and pyridoxal kinase”.

Q: And the “responses, Phase II clinical trials” value [7]?
A: Its value is “partial responses lasting more than four months”.

Q: What about the “toxicity, Phase II clinical trials” value [7] of the same compound?
A: The value was “limited toxicity”.

Q: With `Cc1ccc(C(=O)Cn2c3c(sc2=N)CCCC3)cc1` [pifithrin-α] as the compound, how does the “rescue from roscovitine-induced apoptosis” value (LNCaP cells [8]) read?
A: The value was “rescues LNCaP cells”.

Q: For `CCC(CO)Nc1nc(NCc2ccccc2)c2ncn(C(C)C)c2n1` (stereo not shown) [roscovitine, 2-(1-ethyl-2-hydroxyethylamino)-6-benzylamino-9-isopropylpurine], which “apoptosis when supplied with roscovitine and wild-type p53” value (PC3 and DU145 cells; DU145 and PC3 cells) is on record?
A: The value was “efficiently apoptose”.

Q: And the apoptosis (PC3 and DU145 cells)?
A: Its apoptosis is “relatively resistant and not”.

Q: And the Bcl-2 expression (Bcl-2)?
A: Its Bcl-2 expression is “not”.

Q: What about the cell growth (PC3 cells [1]) of the same compound?
A: The cell growth was “inhibit cell growth”.

Q: What about the apoptosis [9] of the same compound?
A: The apoptosis was “readily induces apoptosis”.

Q: And the PARP cleavage (LNCaP cells [2])?
A: Its PARP cleavage is “did not induce any PARP cleavage”.

Q: What about the “PARP cleavage in the presence as compared with the absence of dominant-negative AKT” value (LNCaP cells [2]) of the same compound?
A: The value was “enhanced PARP cleavage”.

Q: And the “exposure time at which robust PARP cleavage was evident” value (LNCaP cells [2])?
A: The value was “more than 9 hr”.

Q: What about the cell growth (PC3-MM2 cells) of the same compound?
A: Its cell growth is “inhibit cell growth”.

Q: What about the apoptosis [10] of the same compound?
A: The apoptosis was “apoptose; also recorded: readily induces apoptosis”.

Q: What about the “tissue distribution / tumor uptake” value ([11]; in vivo) of the same compound?
A: The value was “highest tumor uptake”.

Q: And the clearance from plasma ([11]; via oxidative metabolism of the side chain hydroxyl group, excreted in urine)?
A: Its clearance from plasma is “clears slowly”.

Q: What about the apoptosis (LNCaP, LNCaP-Rf) of the same compound?
A: The apoptosis was “can induce apoptosis; also recorded: readily induces apoptosis”.

Q: What about the XIAP expression (XIAP [12]) of the same compound?
A: Its XIAP expression is “reduces XIAP expression”.

Q: And the p53 abundance (p53)?
A: Its p53 abundance is “increases p53 abundance”.

Q: And the Bim abundance (Bim [13])?
A: The Bim abundance was “did not alter Bim abundance”.

Q: What about the “XIAP expression / abundance” value (XIAP [14]) of the same compound?
A: Its value is “reduced expression of XIAP”.

Q: What about the “toxicity or adverse effects” value [15] of the same compound?
A: The value was “without any toxicity or adverse effects”.

Q: And the “activity of Cdk7/Cdk9 as measured by phosphorylation of RNA-Pol II” value (Cdk7/Cdk9)?
A: Its value is “reduced activity”.

Q: And the “apoptosis of PC3 cells” value (PC3 cells [4])?
A: The value was “not”.

Q: Which in vivo half-life [3] does the source give for `COC[C@H]1OC(=O)c2coc3c2[C@@]1(C)C1=C(C3=O)[C@@H]2CCC(=O)[C@@]2(C)C[C@H]1OC(C)=O` [wortmannin] here?
A: The in vivo half-life was “short in vivo half-life”.

From patent publication US20070238745A1, “PI3K-Akt Pathway Inhibitors” (UNIVERSITY OF SOUTH FLORIDA, priority 2006, published 2007)
